Data as given in US9856290B2, “Glycopeptide compositions and uses thereof” (SUSSEX RESEARCH LABORATORIES INC., priority 2013, dated 2018).
Marks after values point to notes of the source that are not given here. Primed or numbered codes have the meaning given here. Where no end group is shown, it is not given here. The star is where a group is joined. Ac7‑β‑Cel = heptaacetyl-β-cellobioside (peracetylated β-cellobiose), CC(=O)OC[C@H]1O[C@@H](*)[C@H](OC(C)=O)[C@@H](OC(C)=O)[C@@H]1O[C@@H]1O[C@H](COC(C)=O)[C@@H](OC(C)=O)[C@H](OC(C)=O)[C@H]1OC(C)=O; Ac7‑β‑Lac = heptaacetyl-β-lactoside (peracetylated β-lactose), CC(=O)OC[C@H]1O[C@@H](O[C@H]2[C@H](OC(C)=O)[C@@H](OC(C)=O)[C@H](*)O[C@@H]2COC(C)=O)[C@H](OC(C)=O)[C@@H](OC(C)=O)[C@H]1OC(C)=O; Ac4‑β‑Gal = tetraacetyl-β-galactoside (peracetylated β-galactose), CC(=O)OC[C@H]1O[C@@H](*)[C@H](OC(C)=O)[C@@H](OC(C)=O)[C@H]1OC(C)=O; Ac3‑α‑Rha = triacetyl-α-rhamnoside (peracetylated α-rhamnose), CC(=O)O[C@@H]1[C@@H](OC(C)=O)[C@H](C)O[C@@H](*)[C@@H]1OC(C)=O; Ac4‑β‑Glc = per-acetylated β-glucose (tetraacetyl), CC(=O)OC[C@H]1O[C@@H](*)[C@H](OC(C)=O)[C@@H](OC(C)=O)[C@@H]1OC(C)=O; Ac3‑β‑Fuc = triacetyl-β-fucoside (peracetylated β-fucose), CC(=O)O[C@@H]1[C@H](OC(C)=O)[C@H](C)O[C@H](*)[C@H]1OC(C)=O; Ac3‑β‑Xyl = triacetyl-β-xyloside (peracetylated β-xylose), CC(=O)O[C@@H]1[C@@H](OC(C)=O)[C@H](OC(C)=O)CO[C@H]1*; Ac4‑β‑Glc″ = peracetylated beta-glucose, CC(=O)OC[C@H]1O[C@@H](*)[C@H](OC(C)=O)[C@@H](OC(C)=O)[C@@H]1OC(C)=O; β‑maltose = OC[C@H]1O[C@H](O[C@H]2[C@H](O)[C@@H](O)[C@H](*)O[C@@H]2CO)[C@H](O)[C@@H](O)[C@@H]1O; βGlc = OC[C@H]1O[C@@H](*)[C@H](O)[C@@H](O)[C@@H]1O; Palmitoyl = CCCCCCCCCCCCCCCC(=O)*

What was measured:
[1] = test system: Human Dermal Fibroblasts (KMST-6); test: ECM ELISA assay: elastin secretion by human dermal fibroblasts; type: cell-based; conditions: 5 μM, % compared to control set at 100%, normalized to total protein; for Elastin Secretion at 48 hours: KMST-6, 48 hours; for Elastin Secretion at 72 hours: KMST-6, 72 hours
Description: (§1) KMST-6 cells (Japan Health Sciences Foundation, JCRB0433) were seeded at 7,000 cells/ml in 12-well tissue culture treated plates (Falcon, 353043) in complete media. The complete media consisted of the following: MEM/EBSS (Hyclone, SH30024.01), 10% Heat-Inactivated FBS (Gibco, 10082-147), 1% L-Glutamine (Hyclone, SH30031.01), 1% Nucleosides (800 mg/L Adenosine, 850 mg/L Guanidine, 730 mg/L Cytidine, 730 mg/L Uridine and 240 mg/L Thymidine), 1% Penicillin/Streptomycin (HyClone, SV30010), 1% Sodium Pyruvate (HyClone, SH30239.01), 1% Non-Essential Amino Acids (Hyclone, SH30238.01) and 0.04% Gentamicin (Gibco, 15710-064). Cells were grown for 2 days prior to treatments. The media was aspirated and cells were washed with 1×PBS (Fisher, SH30256.01) and treated with 5 μM (1 mL/well) glycopeptides, reference (Pal-KTTKS, CPC Scientific, 822197), and control (DMSO, Fisher, BP231-100) in serum-free media supplemented with 50 μg/mL Sodium Ascorbate (Sigma, A4034) and 80 μg/mL β-Aminopropionate Fumarate (Sigma, A3134). The treated cells were incubated at 37° C. and 5% CO2 for 48 and 72 hours. At each timepoint, media from each treatment was collected and centrifuged at 1500 RPM for 15 minutes at 4° C. The supernatant was collected and stored at −80° C. for extracellular matrix protein quantification. The following kits were used for quantification of ECM proteins: Fibronectin (Takara, MK115) and Elastin (Uscn Life Science Inc., E91337Hu). The cells were harvest and lysed with 250 μL Lysis Buffer (20 mM Tris-HCl (Sigma, T1503), 137 mM NaCl (Sigma, S9888), 2 mM EDTA (Fisher, BP118), 1% IGEPAL (Sigma, 18896), 10% Glycerol (Sigma, G5516), 100 μM PMSF (Fisher, 36978) and 10 μg/mL Leupeptin (Sigma-Aldrich, L2884). They were placed on a container of ice on a plate shaker (Lab-Line Instruments, 3595) for 30 minutes. The lysate was centrifuged at 10,000 g for 5 minutes at 4° C. The supernatant was collected and used for protein quantification (BioRad, 500-0112).
(§2) To determine effects on extracellular matrix protein secretion, 5 μM of individual glycopeptides were incubated with Human Dermal Fibroblasts (KMST-6). The control sample cells were treated with DMSO (Fisher, BP231-100). As described previously, supernatant was collected from treated cells (at two time-points, 48 and 72 hours of treatment) and stored at −80° C. for subsequent extracellular matrix protein quantification using ELISA kits (Fibronectin (Takara, MK115), Elastin (Uscn Life Science Inc., E91337Hu). For the determination of total cellular protein, treated cells were harvested and lysed. The lysate was centrifuged, the supernatant was collected and then used for protein quantification (BioRad, 500-0112). ELISA plates were read on the plate reader (Molecular Devices) at absorbance of 450 nm and SoftMax Pro software was used to compute the μg/ml values of protein of interest derived from the generated 4-parameter fit standard curve. Each μg/ml of protein secreted was normalized to total protein per well. The data was analysed by averaging out normalized values from at least three independent experiments and presenting them as a % compared to control treatment set at 100% (Table 2-5). Statistical significance was performed using One-way ANOVA (p<0.05) where “*” represents statistical significance when compared to control and “#” represents statistical significance when compared to reference. […]

[2] = test system: Human Dermal Fibroblasts (KMST-6); test: ECM ELISA assay: fibronectin secretion by human dermal fibroblasts; type: cell-based; conditions: 5 μM, % compared to control set at 100%, normalized to total protein; for Fibronectin secretion at 48 hours: KMST-6, 48 hours; for Fibronectin Secretion at 72 hours: KMST-6, 72 hours
Description: as §1, §2

Substance | Elastin Secretion at 48 hours [1] [%] | Elastin Secretion at 72 hours [1] | Fibronectin secretion at 48 hours [2] | Fibronectin Secretion at 72 hours [2] [%]
Dal-KT(β-Mal)TKS-OH (KT(β‑maltose)TKS-OH; not fully specified (N-terminus); printed as Dal-KT(β-Mal)TKS-OH; listed as Homo sapiens) [GP003-10] | 149.5 | 127.6% | 144.5% | 94.70
Pal-KN(Ac4-β-Glc)TKS-OH (Palmitoyl-KN(Ac4‑β‑Glc″)TKS-OH; listed as Homo sapiens) [GP003-5] | 211.4 | 194.2% | 146.0% | 136.0
Pal-KN(β-Glc)TKS-OH (Palmitoyl-KN(βGlc)TKS-OH; listed as Homo sapiens) [GP003-6] | 170.3 | 128.8% | 140.2% | 119.7
Pal-KS(Ac4-β-Glc)TKS-OH (Palmitoyl-KS(Ac4‑β‑Glc″)TKS-OH; SMILES CCCCCCCCCCCCCCCC(=O)N[C@@H](CCCCN)C(=O)N[C@@H](CO[C@@H]1O[C@H](COC(C)=O)[C@@H](OC(C)=O)[C@H](OC(C)=O)[C@H]1OC(C)=O)C(=O)N[C@H](C(=O)N[C@@H](CCCCN)C(=O)N[C@@H](CO)C(=O)O)[C@@H](C)O; listed as Homo sapiens) [GP003-3] | 177.1 | 146.8% | 162.0* % | 138.8
Pal-KT(Ac3-α-Rha)TKS-OH (Palmitoyl-KT(Ac3‑α‑Rha)TKS-OH; SMILES CCCCCCCCCCCCCCCC(=O)N[C@@H](CCCCN)C(=O)N[C@H](C(=O)N[C@H](C(=O)N[C@@H](CCCCN)C(=O)N[C@@H](CO)C(=O)O)[C@@H](C)O)[C@@H](C)O[C@@H]1O[C@@H](C)[C@H](OC(C)=O)[C@@H](OC(C)=O)[C@H]1OC(C)=O; listed as Homo sapiens) [GP004-7] | 241.0 | 193.0% | – | –
Pal-KT(Ac4-β-Gal)TKS-OH (Palmitoyl-KT(Ac4‑β‑Gal)TKS-OH; SMILES CCCCCCCCCCCCCCCC(=O)N[C@@H](CCCCN)C(=O)N[C@H](C(=O)N[C@H](C(=O)N[C@@H](CCCCN)C(=O)N[C@@H](CO)C(=O)O)[C@@H](C)O)[C@@H](C)O[C@@H]1O[C@H](COC(C)=O)[C@H](OC(C)=O)[C@H](OC(C)=O)[C@H]1OC(C)=O; listed as Homo sapiens) [GP004-1] | 215.3 | 202.0% | – | –
Pal-KT(Ac7-β-Cel)TKS-OH (Palmitoyl-KT(Ac7‑β‑Cel)TKS-OH; SMILES CCCCCCCCCCCCCCCC(=O)N[C@@H](CCCCN)C(=O)N[C@H](C(=O)N[C@H](C(=O)N[C@@H](CCCCN)C(=O)N[C@@H](CO)C(=O)O)[C@@H](C)O)[C@@H](C)O[C@@H]1O[C@H](COC(C)=O)[C@@H](O[C@@H]2O[C@H](COC(C)=O)[C@@H](OC(C)=O)[C@H](OC(C)=O)[C@H]2OC(C)=O)[C@H](OC(C)=O)[C@H]1OC(C)=O; listed as Homo sapiens) [GP004-9] | 199.3 | 254.6* % | – | –
Pal-KT(Ac7-β-Lac)TKS-OH (Palmitoyl-KT(Ac7‑β‑Lac)TKS-OH; SMILES CCCCCCCCCCCCCCCC(=O)N[C@@H](CCCCN)C(=O)N[C@H](C(=O)N[C@H](C(=O)N[C@@H](CCCCN)C(=O)N[C@@H](CO)C(=O)O)[C@@H](C)O)[C@@H](C)O[C@@H]1O[C@H](COC(C)=O)[C@@H](O[C@@H]2O[C@H](COC(C)=O)[C@H](OC(C)=O)[C@H](OC(C)=O)[C@H]2OC(C)=O)[C@H](OC(C)=O)[C@H]1OC(C)=O; listed as Homo sapiens) [GP004-5] | 195.3 | 209.5% | – | –
Pal-KTT(Ac4-β-Gal)KS-OH (Palmitoyl-KTT(Ac4‑β‑Gal)KS-OH; SMILES CCCCCCCCCCCCCCCC(=O)N[C@@H](CCCCN)C(=O)N[C@H](C(=O)N[C@H](C(=O)N[C@@H](CCCCN)C(=O)N[C@@H](CO)C(=O)O)[C@@H](C)O[C@@H]1O[C@H](COC(C)=O)[C@H](OC(C)=O)[C@H](OC(C)=O)[C@H]1OC(C)=O)[C@@H](C)O; listed as Homo sapiens) [GP004-2] | 186.5 | 138.3% | – | –
Pal-KTT(Ac4-β-Glc)KS-OH (Palmitoyl-KTT(Ac4‑β‑Glc)KS-OH; SMILES CCCCCCCCCCCCCCCC(=O)N[C@@H](CCCCN)C(=O)N[C@H](C(=O)N[C@H](C(=O)N[C@@H](CCCCN)C(=O)N[C@@H](CO)C(=O)O)[C@@H](C)O[C@@H]1O[C@H](COC(C)=O)[C@@H](OC(C)=O)[C@H](OC(C)=O)[C@H]1OC(C)=O)[C@@H](C)O; listed as Homo sapiens) [GP001-7] | – | – | 101.3% | 109.4
Pal-KTTKS(Ac3-α-Rha)-OH (Palmitoyl-KTTKS(Ac3‑α‑Rha)-OH; SMILES CCCCCCCCCCCCCCCC(=O)N[C@@H](CCCCN)C(=O)N[C@H](C(=O)N[C@H](C(=O)N[C@@H](CCCCN)C(=O)N[C@@H](CO[C@@H]1O[C@@H](C)[C@H](OC(C)=O)[C@@H](OC(C)=O)[C@H]1OC(C)=O)C(=O)O)[C@@H](C)O)[C@@H](C)O; listed as Homo sapiens) [GP004-8] | 166.8 | 169.3% | – | –
Pal-KTTKS(Ac3-β-Fuc)-OH (Palmitoyl-KTTKS(Ac3‑β‑Fuc)-OH; SMILES CCCCCCCCCCCCCCCC(=O)N[C@@H](CCCCN)C(=O)N[C@H](C(=O)N[C@H](C(=O)N[C@@H](CCCCN)C(=O)N[C@@H](CO[C@H]1O[C@@H](C)[C@@H](OC(C)=O)[C@@H](OC(C)=O)[C@@H]1OC(C)=O)C(=O)O)[C@@H](C)O)[C@@H](C)O; listed as Homo sapiens) [GP004-12] | 151.4 | 191.8% | – | –
Pal-KTTKS(Ac3-β-Xyl)-OH (Palmitoyl-KTTKS(Ac3‑β‑Xyl)-OH; SMILES CCCCCCCCCCCCCCCC(=O)N[C@@H](CCCCN)C(=O)N[C@H](C(=O)N[C@H](C(=O)N[C@@H](CCCCN)C(=O)N[C@@H](CO[C@@H]1OC[C@@H](OC(C)=O)[C@H](OC(C)=O)[C@H]1OC(C)=O)C(=O)O)[C@@H](C)O)[C@@H](C)O; listed as Homo sapiens) [GP004-11] | 178.8 | 121.3% | – | –
Pal-KTTKS(Ac7-β-Cel)-OH (Palmitoyl-KTTKS(Ac7‑β‑Cel)-OH; SMILES CCCCCCCCCCCCCCCC(=O)N[C@@H](CCCCN)C(=O)N[C@H](C(=O)N[C@H](C(=O)N[C@@H](CCCCN)C(=O)N[C@@H](CO[C@@H]1O[C@H](COC(C)=O)[C@@H](O[C@@H]2O[C@H](COC(C)=O)[C@@H](OC(C)=O)[C@H](OC(C)=O)[C@H]2OC(C)=O)[C@H](OC(C)=O)[C@H]1OC(C)=O)C(=O)O)[C@@H](C)O)[C@@H](C)O; listed as Homo sapiens) [GP004-10] | 211.3 | 187.0% | – | –
Pal-KTTKS(Ac7-β-Lac)-OH (Palmitoyl-KTTKS(Ac7‑β‑Lac)-OH; SMILES CCCCCCCCCCCCCCCC(=O)N[C@@H](CCCCN)C(=O)N[C@H](C(=O)N[C@H](C(=O)N[C@@H](CCCCN)C(=O)N[C@@H](CO[C@@H]1O[C@H](COC(C)=O)[C@@H](O[C@@H]2O[C@H](COC(C)=O)[C@H](OC(C)=O)[C@H](OC(C)=O)[C@H]2OC(C)=O)[C@H](OC(C)=O)[C@H]1OC(C)=O)C(=O)O)[C@@H](C)O)[C@@H](C)O; listed as Homo sapiens) [GP004-6] | 218.6 | 170.0% | – | –
